Test results as given in patent publication US20080274892A1, “Novel Haloalkylsulfonanilide Derivative, Herbicide, and Method of Use Thereof” (priority 2005, published 2008).

Assays:
barnyard glass = test: Test Example 2: herbicidal efficacy on rice paddy weeds post-emergence; format: in vivo, Echinochloa crus-galli; conditions: post-emergence, one leaf stage, 21 days after treatment
Text: (§1) The standard of judgment for herbicidal efficacy (degree of growth inhibition) and phytotoxicity 4 . . . 90%-100% of herbicidal efficacy or phytotoxicity 3 . . . 70%-89% of herbicidal efficacy or phytotoxicity 2 . . . 40%-69% of herbicidal efficacy or phytotoxicity 1 . . . 1%-39% of herbicidal efficacy or phytotoxicity 0 . . . 0% of herbicidal efficacy or phytotoxicity
(§2) A 75 cm^2 plastic pot was filled with soil (clay loam) and planted seeds of barnyard glass and bulrush which is a rice paddy weed. After covering the top with 75 cm^3 soil mixed with seeds of false pimpernel, the pot was filled with water so that the soil submerged under 5 cm depth of water and kept in a hot house. […] The pot was kept in a hot house for 21 days after the treatment and the herbicidal efficacy was investigated and evaluated according to the standard in Test Example 1 by comparing with the untreated control. “-” in the table represents test not done.

[1] = system: paddy rice plant (cultivar: Nihonbare); test: Test Example 3: phytotoxicity test for transplanted paddy rice plant; format: in vivo; conditions: transplanted rice, 21 days after treatment
Procedure: as §1
A 75 cm^2 plastic pot was filled with soil (clay loam), and water was added so that the soil was submerged under 5 cm depth of water. Two paddy rice plant (cultivar: Nihonbare) at two leaves stage were transplanted at the depth of 1 cm and kept in a hot house. […] The pot was kept in a hot house for 21 days after the treatment and the phytotoxicity was investigated and evaluated according to the standard in Test Example 1 by comparing with the untreated control. “-” in the table represents test not done.

bulrush [2] = test: Test Example 1: herbicidal efficacy on rice paddy weeds pre-emergence; format: in vivo, Scirpus juncoides; conditions: 21 days
Procedure: (§3) A 75 cm^2 plastic pot was filled with soil (clay loam) and planted seeds of bulrush which is a rice paddy weed. After covering the top with 75 cm^3 soil mixed with seeds of false pimpernel, the pot was filled with water so that the soil submerged under 5 cm depth of water. The predetermined effective dosage ([…]) of a formulation containing the compound of the present invention prepared according to Formulation Example 1-4 as an active ingredient was diluted in water and added to the pot water surface dropwise. The pot was kept in a hot house for 21 days and the herbicidal efficacy was investigated. The herbicidal efficacy was evaluated according to the following standard by comparing with untreated control. “-” in the table represents test not done.
as §1

false pimpernel [3] = test: Test Example 2: herbicidal efficacy on rice paddy weeds post-emergence; format: in vivo, Lindernia pyxidaria; conditions: post-emergence, one leaf stage, 21 days after treatment
Text: as §1, §2

false pimpernel [4] = test: Test Example 1: herbicidal efficacy on rice paddy weeds pre-emergence; format: in vivo, Lindernia pyxidaria; conditions: 21 days
Procedure: as §3, §1

bulrush [5] = test: Test Example 2: herbicidal efficacy on rice paddy weeds post-emergence; format: in vivo, Scirpus juncoides; conditions: post-emergence, one leaf stage, 21 days after treatment
Text: as §1, §2

[6] = dosage 1000 g/ha, treated 5 days after transplantation

SMILES | Burnyard grass post (herbicidal efficacy grade) (barnyard glass; dosage 1000 g/ha) | Phytotoxicity to paddy rice [1, 6] | Bulrush pre (herbicidal efficacy grade) (bulrush [2]; dosage 1000 g/ha) | False pimpernel post (herbicidal efficacy grade) (false pimpernel [3]; dosage 1000 g/ha) | False pimpernel pre (herbicidal efficacy grade) (false pimpernel [4]; dosage 1000 g/ha) | Bulrush post (herbicidal efficacy grade) (bulrush [5]; dosage 1000 g/ha) | Burnyard grass post (herbicidal efficacy grade) (barnyard glass; dosage 300 g/ha) | Phytotoxicity to paddy rice ([1]; dosage 300 g/ha) | Bulrush pre (herbicidal efficacy grade) (bulrush [2]; dosage 300 g/ha) | False pimpernel post (herbicidal efficacy grade) (false pimpernel [3]; dosage 300 g/ha) | False pimpernel pre (herbicidal efficacy grade) (false pimpernel [4]; dosage 300 g/ha) | Bulrush post (herbicidal efficacy grade) (bulrush [5]; dosage 300 g/ha)
O=C1OCCN1Cc1ccccc1NS(=O)(=O)C(F)(F)F [Compound 1-1] | 4 (90%-100% of herbicidal efficacy or phytotoxicity) | 1 (1%-39% of herbicidal efficacy or phytotoxicity) | 4 (90%-100% of herbicidal efficacy or phytotoxicity) | 4 (90%-100% of herbicidal efficacy or phytotoxicity) | 4 (90%-100% of herbicidal efficacy or phytotoxicity) | 4 (90%-100% of herbicidal efficacy or phytotoxicity) | – | – | – | – | – | –
CCCC1COC(=O)N1Cc1ccccc1NS(=O)(=O)C(F)(F)F (stereo not drawn) [Compound 1-7] | – | – | – | – | – | – | 1 (1%-39% of herbicidal efficacy or phytotoxicity) | 1 (1%-39% of herbicidal efficacy or phytotoxicity) | 4 (90%-100% of herbicidal efficacy or phytotoxicity) | 2 (40%-69% of herbicidal efficacy or phytotoxicity) | 4 (90%-100% of herbicidal efficacy or phytotoxicity) | 4 (90%-100% of herbicidal efficacy or phytotoxicity)
CCCC1COC(=O)N1Cc1ccccc1N(C(=O)OCC(C)C)S(=O)(=O)C(F)(F)F (stereo not drawn) [Compound 1-8] | – | – | – | – | – | – | 4 (90%-100% of herbicidal efficacy or phytotoxicity) | 0 (0% of herbicidal efficacy or phytotoxicity) | 4 (90%-100% of herbicidal efficacy or phytotoxicity) | 2 (40%-69% of herbicidal efficacy or phytotoxicity) | 4 (90%-100% of herbicidal efficacy or phytotoxicity) | 4 (90%-100% of herbicidal efficacy or phytotoxicity)
CC(C)C1COC(=O)N1Cc1ccccc1NS(=O)(=O)C(F)(F)F (stereo not drawn) [Compound 1-9] | – | – | – | – | – | – | 4 (90%-100% of herbicidal efficacy or phytotoxicity) | 2 (40%-69% of herbicidal efficacy or phytotoxicity) | 4 (90%-100% of herbicidal efficacy or phytotoxicity) | 2 (40%-69% of herbicidal efficacy or phytotoxicity) | 4 (90%-100% of herbicidal efficacy or phytotoxicity) | 4 (90%-100% of herbicidal efficacy or phytotoxicity)
CC(C)COC(=O)N(c1ccccc1CN1C(=O)OCC1C(C)C)S(=O)(=O)C(F)(F)F (stereo not drawn) [Compound 1-10] | 4 (90%-100% of herbicidal efficacy or phytotoxicity) | 1 (1%-39% of herbicidal efficacy or phytotoxicity) | 4 (90%-100% of herbicidal efficacy or phytotoxicity) | 4 (90%-100% of herbicidal efficacy or phytotoxicity) | 4 (90%-100% of herbicidal efficacy or phytotoxicity) | 4 (90%-100% of herbicidal efficacy or phytotoxicity) | – | – | – | – | – | –
CCCCC1COC(=O)N1Cc1ccccc1NS(=O)(=O)C(F)(F)F (stereo not drawn) [Compound 1-11] | – | – | – | – | – | – | 0 (0% of herbicidal efficacy or phytotoxicity) | 0 (0% of herbicidal efficacy or phytotoxicity) | 4 (90%-100% of herbicidal efficacy or phytotoxicity) | 1 (1%-39% of herbicidal efficacy or phytotoxicity) | 2 (40%-69% of herbicidal efficacy or phytotoxicity) | 3 (70%-89% of herbicidal efficacy or phytotoxicity)
CCCCC1COC(=O)N1Cc1ccccc1N(C(=O)OCC(C)C)S(=O)(=O)C(F)(F)F (stereo not drawn) [Compound 1-12] | – | – | – | – | – | – | 2 (40%-69% of herbicidal efficacy or phytotoxicity) | 0 (0% of herbicidal efficacy or phytotoxicity) | 4 (90%-100% of herbicidal efficacy or phytotoxicity) | 2 (40%-69% of herbicidal efficacy or phytotoxicity) | 2 (40%-69% of herbicidal efficacy or phytotoxicity) | 4 (90%-100% of herbicidal efficacy or phytotoxicity)
O=C1OC(C(F)(F)F)CN1Cc1ccccc1NS(=O)(=O)C(F)(F)F (stereo not drawn) [Compound 1-19] | – | – | – | – | – | – | 2 (40%-69% of herbicidal efficacy or phytotoxicity) | 0 (0% of herbicidal efficacy or phytotoxicity) | 4 (90%-100% of herbicidal efficacy or phytotoxicity) | 2 (40%-69% of herbicidal efficacy or phytotoxicity) | 3 (70%-89% of herbicidal efficacy or phytotoxicity) | 4 (90%-100% of herbicidal efficacy or phytotoxicity)
CC(C)COC(=O)N(c1ccccc1CN1CC(C(F)(F)F)OC1=O)S(=O)(=O)C(F)(F)F (stereo not drawn) [Compound 1-20] | – | – | – | – | – | – | 4 (90%-100% of herbicidal efficacy or phytotoxicity) | 0 (0% of herbicidal efficacy or phytotoxicity) | 4 (90%-100% of herbicidal efficacy or phytotoxicity) | 3 (70%-89% of herbicidal efficacy or phytotoxicity) | 3 (70%-89% of herbicidal efficacy or phytotoxicity) | 4 (90%-100% of herbicidal efficacy or phytotoxicity)
CCCC1CN(Cc2ccccc2NS(=O)(=O)C(F)(F)F)C(=O)O1 (stereo not drawn) [Compound 1-29] | 4 (90%-100% of herbicidal efficacy or phytotoxicity) | 2 (40%-69% of herbicidal efficacy or phytotoxicity) | 4 (90%-100% of herbicidal efficacy or phytotoxicity) | 4 (90%-100% of herbicidal efficacy or phytotoxicity) | 4 (90%-100% of herbicidal efficacy or phytotoxicity) | 4 (90%-100% of herbicidal efficacy or phytotoxicity) | – | – | – | – | – | –
CCCC1CN(Cc2ccccc2N(C(=O)OCC(C)C)S(=O)(=O)C(F)(F)F)C(=O)O1 (stereo not drawn) [Compound 1-30] | 4 (90%-100% of herbicidal efficacy or phytotoxicity) | 0 (0% of herbicidal efficacy or phytotoxicity) | 4 (90%-100% of herbicidal efficacy or phytotoxicity) | 4 (90%-100% of herbicidal efficacy or phytotoxicity) | 4 (90%-100% of herbicidal efficacy or phytotoxicity) | 4 (90%-100% of herbicidal efficacy or phytotoxicity) | – | – | – | – | – | –
CC(C)(C)C1CN(Cc2ccccc2NS(=O)(=O)C(F)(F)F)C(=O)O1 (stereo not drawn) [Compound 1-33] | 4 (90%-100% of herbicidal efficacy or phytotoxicity) | 2 (40%-69% of herbicidal efficacy or phytotoxicity) | 4 (90%-100% of herbicidal efficacy or phytotoxicity) | 4 (90%-100% of herbicidal efficacy or phytotoxicity) | 4 (90%-100% of herbicidal efficacy or phytotoxicity) | 4 (90%-100% of herbicidal efficacy or phytotoxicity) | – | – | – | – | – | –
CC(C)COC(=O)N(c1ccccc1CN1CC(C(C)(C)C)OC1=O)S(=O)(=O)C(F)(F)F (stereo not drawn) [Compound 1-34] | 4 (90%-100% of herbicidal efficacy or phytotoxicity) | 1 (1%-39% of herbicidal efficacy or phytotoxicity) | 4 (90%-100% of herbicidal efficacy or phytotoxicity) | 4 (90%-100% of herbicidal efficacy or phytotoxicity) | 4 (90%-100% of herbicidal efficacy or phytotoxicity) | 4 (90%-100% of herbicidal efficacy or phytotoxicity) | – | – | – | – | – | –
COCC1CN(Cc2ccccc2N(C(=O)OCC(C)C)S(=O)(=O)C(F)(F)F)C(=O)O1 (stereo not drawn) [Compound 1-36] | 4 (90%-100% of herbicidal efficacy or phytotoxicity) | 1 (1%-39% of herbicidal efficacy or phytotoxicity) | 4 (90%-100% of herbicidal efficacy or phytotoxicity) | 4 (90%-100% of herbicidal efficacy or phytotoxicity) | 4 (90%-100% of herbicidal efficacy or phytotoxicity) | 4 (90%-100% of herbicidal efficacy or phytotoxicity) | – | – | – | – | – | –
